Experimental data reported in US20250099511A1, “PHARMACEUTICAL COMPOSITION FOR PREVENTING OR TREATING CANCER” (ENTEROBIOME INC., priority 2022, published 2025).
In brackets after ≈: the same amount, converted by molar mass. Read-outs that look alike come from different tables or passages of the source.

Legend:
Type in all cases: cell-based
[1] = tested on: Faecalibacterium prausnitzii EB-FPYYK1; assay: MIC by broth microdilution (CLSI); conditions: for susceptibility category (S/I/R) by MIC breakpoints: strain EB-FPYYK1; for MIC: test strain EB-FPYYK1
[2] = tested on: Faecalibacterium prausnitzii EB-FPDK9; assay: MIC by broth microdilution (CLSI); conditions: for susceptibility category (S/I/R) by MIC breakpoints: strain EB-FPDK9; for MIC: test strain EB-FPDK9
[3] = tested on: Faecalibacterium prausnitzii A2-165; assay: MIC by broth microdilution (CLSI), type strain; conditions: for susceptibility category (S/I/R) by MIC breakpoints: strain A2-165; for MIC: test strain A2-165
[4] = tested on: Faecalibacterium prausnitzii EB-FPDK3; assay: MIC by broth microdilution (CLSI); conditions: for susceptibility category (S/I/R) by MIC breakpoints: strain EB-FPDK3; for MIC: test strain EB-FPDK3
[5] = tested on: Faecalibacterium prausnitzii EB-FPDK11; assay: MIC by broth microdilution (CLSI); conditions: for susceptibility category (S/I/R) by MIC breakpoints: strain EB-FPDK11; for MIC: test strain EB-FPDK11
[6] = tested on: Faecalibacterium prausnitzii strains of the present invention; assay: Antimicrobial susceptibility, summary for all strains; conditions: all Faecalibacterium prausnitzii strains of Table 5
[7] = tested on: Bacteroides thetiotaomicron ATCC 29741; assay: MIC by broth microdilution (CLSI), QC strain
[8] = Faecalibacterium prausnitzii, EBFPYYK1, read-out: MIC
[9] = Faecalibacterium prausnitzii, EBFPDK9, read-out: MIC
[10] = Faecalibacterium prausnitzii, A2165, read-out: MIC
[11] = Faecalibacterium prausnitzii, EBFPDK3, read-out: MIC
[12] = Faecalibacterium prausnitzii, EBFPDK11, read-out: MIC

**Q.** Which results are given for `CCC[C@@H]1C[C@@H](C(=O)N[C@@H]([C@H]2O[C@H](SC)[C@H](O)[C@@H](O)[C@H]2O)[C@H](C)Cl)N(C)C1` [CLI, clindamycin]?
**A.** susceptibility category (S/I/R) by MIC breakpoints ([1]; CLI breakpoints): (S) (≤2); MIC [1, 8]: ≤ 0.125 µg/mL; susceptibility category (S/I/R) by MIC breakpoints ([2]; CLI breakpoints): (S) (≤2); MIC [2, 9]: ≤ 0.125 µg/mL; susceptibility category (S/I/R) by MIC breakpoints ([3]; CLI breakpoints): (S) (≤2); MIC [3, 10]: ≤ 0.125 µg/mL; susceptibility category (S/I/R) by MIC breakpoints ([4]; CLI breakpoints): (S) (≤2); MIC [4, 11]: ≤ 0.125 µg/mL; susceptibility category (S/I/R) by MIC breakpoints ([5]; CLI breakpoints): (S) (≤2); MIC [5, 12]: ≤ 0.125 µg/mL

**Q.** Which results are given for `Cc1ncc([N+](=O)[O-])n1CCO` [MTZ, metronidazole]?
**A.** susceptibility or resistance of all the strains to the antibiotic [6]: susceptibility; MIC [1, 8]: 2 µg/mL (≈ 11.7 µM); susceptibility category (S/I/R) by MIC breakpoints ([1]; MTZ breakpoints): (S) (≤8); MIC [2, 9]: < 0.25 µg/mL; susceptibility category (S/I/R) by MIC breakpoints ([2]; MTZ breakpoints): (S) (≤8); MIC ([7]; Bacteroides, ATCC29741): 2 µg/mL (≈ 11.7 µM); MIC [3, 10]: 4 µg/mL (≈ 23.4 µM); susceptibility category (S/I/R) by MIC breakpoints ([3]; MTZ breakpoints): (S) (≤8); MIC [4, 11]: 1 µg/mL (≈ 5.84 µM); susceptibility category (S/I/R) by MIC breakpoints ([4]; MTZ breakpoints): (S) (≤8); MIC [5, 12]: 0.5 µg/mL (≈ 2.92 µM); susceptibility category (S/I/R) by MIC breakpoints ([5]; MTZ breakpoints): (S) (≤8)

**Q.** Which results are given for `COc1c(N2C[C@@H]3CCCN[C@@H]3C2)c(F)cc2c(=O)c(C(=O)O)cn(C3CC3)c12` [MXF, moxifloxacin]?
**A.** MIC [1, 8]: > 32 µg/mL; susceptibility category (S/I/R) by MIC breakpoints ([1]; MXF breakpoints): (R) (≥8); MIC [2, 9]: 32 µg/mL (≈ 79.7 µM); susceptibility category (S/I/R) by MIC breakpoints ([2]; MXF breakpoints): (R) (≥8); MIC ([7]; Bacteroides, ATCC29741): 8 µg/mL (≈ 19.9 µM); MIC [3, 10]: 16 µg/mL (≈ 39.9 µM); susceptibility category (S/I/R) by MIC breakpoints ([3]; MXF breakpoints): (R) (≥8); MIC [4, 11]: > 32 µg/mL; susceptibility category (S/I/R) by MIC breakpoints ([4]; MXF breakpoints): (R) (≥8); MIC [5, 12]: 32 µg/mL (≈ 79.7 µM); susceptibility category (S/I/R) by MIC breakpoints ([5]; MXF breakpoints): (R) (≥8)

**Q.** Which results are given for piperacillin-tazobactam [PTZ]?
**A.** susceptibility category (S/I/R) by MIC breakpoints ([1]; PTZ breakpoints): (R) (≥128/4); MIC [1]: >256/4; susceptibility category (S/I/R) by MIC breakpoints ([2]; PTZ breakpoints): (S) (≤32/4); MIC [2]: 32/4; MIC ([7]; QC ATCC 29741): 8/4; susceptibility category (S/I/R) by MIC breakpoints ([3]; PTZ breakpoints): (R) (≥128/4); MIC [3]: >256/4; susceptibility category (S/I/R) by MIC breakpoints ([4]; PTZ breakpoints): (S) (≤32/4); MIC [4]: 32/4; susceptibility category (S/I/R) by MIC breakpoints ([5]; PTZ breakpoints): (R) (≥128/4); MIC [5]: >256/4

**Q.** Which MIC [1, 8] does the source give for `C[C@@H](O)[C@H]1C(=O)N2C(C(=O)O)=C(S[C@@H]3CN[C@H](C(=O)N(C)C)C3)[C@H](C)[C@H]12` [MEM, meropenem] here?
**A.** Its MIC is over 64 µg/mL.

**Q.** And the “susceptibility category (S/I/R) by MIC breakpoints” value (shortened to “susceptibility category (S/I/R)”) ([1]; MEM breakpoints)?
**A.** Its value is “(R) (≥16)”.

**Q.** And the MIC [2, 9]?
**A.** Its MIC is over 64 µg/mL.

**Q.** What about the “susceptibility category (S/I/R)” value ([2]; MEM breakpoints) of the same compound?
**A.** The value was “(R) (≥16)”.

**Q.** What about the MIC ([7]; Bacteroides, ATCC29741) of the same compound?
**A.** The MIC was 0.5 µg/mL (≈ 1.3 µM).

**Q.** What about the MIC [3, 10] of the same compound?
**A.** Its MIC is over 64 µg/mL.

**Q.** What about the “susceptibility category (S/I/R)” value ([3]; MEM breakpoints) of the same compound?
**A.** Its value is “(R) (≥16)”.

**Q.** What about the MIC [4, 11] of the same compound?
**A.** The MIC was over 64 µg/mL.

**Q.** And the “susceptibility category (S/I/R)” value ([4]; MEM breakpoints)?
**A.** The value was “(R) (≥16)”.

**Q.** And the MIC [5, 12]?
**A.** Its MIC is over 64 µg/mL.

**Q.** What about the “susceptibility category (S/I/R)” value ([5]; MEM breakpoints) of the same compound?
**A.** The value was “(R) (≥16)”.

**Q.** With `O=C(N[C@H](CO)[C@H](O)c1ccc([N+](=O)[O-])cc1)C(Cl)Cl` [CHL, chloramphenicol] as the compound, how does the “susceptibility category (S/I/R)” value ([1]; CHL breakpoints) read?
**A.** Its value is “(R) (≥32)”.

**Q.** What about the MIC [1, 8] of the same compound?
**A.** Its MIC is 256 µg/mL (≈ 792 µM).

**Q.** And the “susceptibility category (S/I/R)” value ([2]; CHL breakpoints)?
**A.** Its value is “(R) (≥32)”.

**Q.** And the MIC [2, 9]?
**A.** The MIC was 32 µg/mL (≈ 99 µM).

**Q.** And the MIC ([7]; Bacteroides, ATCC29741)?
**A.** The MIC was 8 µg/mL (≈ 24.8 µM).

**Q.** And the “susceptibility category (S/I/R)” value ([3]; CHL breakpoints)?
**A.** Its value is “(R) (≥32)”.

**Q.** What about the MIC [3, 10] of the same compound?
**A.** Its MIC is 64 µg/mL (≈ 198 µM).

**Q.** What about the “susceptibility category (S/I/R)” value ([4]; CHL breakpoints) of the same compound?
**A.** The value was “(S) (≤8)”.

**Q.** What about the MIC [4, 11] of the same compound?
**A.** The MIC was 8 µg/mL (≈ 24.8 µM).

**Q.** What about the “susceptibility category (S/I/R)” value ([5]; CHL breakpoints) of the same compound?
**A.** Its value is “(S) (≤8)”.

**Q.** What about the MIC [5, 12] of the same compound?
**A.** Its MIC is 8 µg/mL (≈ 24.8 µM).

**Q.** `CO/N=C(\C(=O)N[C@@H]1C(=O)N2C(C(=O)O)=CCS[C@H]12)c1csc(N)n1` [CTZ, ceftizoxime] was tested. Which “susceptibility category (S/I/R)” value ([1]; CTZ breakpoints) did it give?
**A.** The value was “(R) (≥128)”.

**Q.** And the MIC [1, 8]?
**A.** The MIC was 128 µg/mL (≈ 334 µM).

**Q.** What about the “susceptibility category (S/I/R)” value ([2]; CTZ breakpoints) of the same compound?
**A.** Its value is “(R) (≥128)”.

**Q.** What about the MIC [2, 9] of the same compound?
**A.** The MIC was 128 µg/mL (≈ 334 µM).

**Q.** And the MIC ([7]; Bacteroides, ATCC29741)?
**A.** Its MIC is 16 µg/mL (≈ 41.7 µM).

**Q.** And the “susceptibility category (S/I/R)” value ([3]; CTZ breakpoints)?
**A.** The value was “(I) (64)”.

**Q.** And the MIC [3, 10]?
**A.** The MIC was 64 µg/mL (≈ 167 µM).

**Q.** What about the “susceptibility category (S/I/R)” value ([4]; CTZ breakpoints) of the same compound?
**A.** The value was “(S) (≤32)”.

**Q.** What about the MIC [4, 11] of the same compound?
**A.** Its MIC is 16 µg/mL (≈ 41.7 µM).

**Q.** What about the “susceptibility category (S/I/R)” value ([5]; CTZ breakpoints) of the same compound?
**A.** The value was “(R) (≥128)”.

**Q.** What about the MIC [5, 12] of the same compound?
**A.** Its MIC is 128 µg/mL (≈ 334 µM).
